Values joined by “and” are separate entries in the source; they are usually repeats but may differ in a detail not shown here. Identical values can stand only once.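 Five compound concentrations were applied to cells in 96-well plates for 48 hours; endpoints were derived by simple linear interpolation of the resulting dose-response curve. Here, GI50 denotes the concentration required for 50% inhibition of growth. Definition used: TGI = concentration required for complete inhibition of growth.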
Key:
Test in all cases: NCI anticancer screen, dose series, 48 h; in the data active = GI50 below about 0.43 µM; inactive = the rest
MOLT-4 leukemia = test system: MOLT-4 leukemia
LOX IMVI melanoma = test system: LOX IMVI melanoma
HL-60(TB) leukemia = test system: HL-60(TB) leukemia
IGROV1 ovarian = test system: IGROV1 ovarian
UACC-62 melanoma = test system: UACC-62 melanoma
MCF7 breast = test system: MCF7 breast
NCI-H23 lung = test system: NCI-H23 lung
SF-539 CNS = test system: SF-539 CNS
SN12C renal = test system: SN12C renal
K-562 leukemia = test system: K-562 leukemia
SNB-75 CNS = test system: SNB-75 CNS
MALME-3M melanoma = test system: MALME-3M melanoma
HS 578T breast = test system: HS 578T breast
U251 CNS = test system: U251 CNS
786-0 renal = test system: 786-0 renal
COLO 205 colon = test system: COLO 205 colon
CAKI-1 renal = test system: CAKI-1 renal
MDA-N = test system: MDA-N
M14 melanoma = test system: M14 melanoma
SW-620 colon = test system: SW-620 colon
HT29 colon = test system: HT29 colon
OVCAR-4 ovarian = test system: OVCAR-4 ovarian
CCRF-CEM leukemia = test system: CCRF-CEM leukemia
UACC-257 melanoma = test system: UACC-257 melanoma
SR leukemia = test system: SR leukemia
MDA-MB-435 = test system: MDA-MB-435
RXF 393 renal = test system: RXF 393 renal
PC-3 prostate = test system: PC-3 prostate
SK-OV-3 ovarian = test system: SK-OV-3 ovarian
DU-145 prostate = test system: DU-145 prostate
HOP-92 NSCLC = test system: HOP-92 NSCLC
KM12 colon = test system: KM12 colon
NCI-H460 lung = test system: NCI-H460 lung
ACHN renal = test system: ACHN renal
OVCAR-3 ovarian = test system: OVCAR-3 ovarian
SK-MEL-5 melanoma = test system: SK-MEL-5 melanoma
HOP-62 NSCLC = test system: HOP-62 NSCLC
NCI/ADR-RES ovarian = test system: NCI/ADR-RES ovarian
A549 NSCLC = test system: A549 NSCLC
NCI-H522 lung = test system: NCI-H522 lung
MDA-MB-231 breast = test system: MDA-MB-231 breast
NCI-H226 lung = test system: NCI-H226 lung
RPMI-8226 leukemia = test system: RPMI-8226 leukemia
HCC-2998 colon = test system: HCC-2998 colon
HCT-15 colon = test system: HCT-15 colon
SK-MEL-28 melanoma = test system: SK-MEL-28 melanoma
HCT-116 colon = test system: HCT-116 colon
T-47D breast = test system: T-47D breast
TK-10 renal = test system: TK-10 renal
OVCAR-5 ovarian = test system: OVCAR-5 ovarian
UO-31 renal = test system: UO-31 renal
SF-268 CNS = test system: SF-268 CNS
SNB-19 CNS = test system: SNB-19 CNS
BT-549 breast = test system: BT-549 breast
SF-295 CNS = test system: SF-295 CNS
EKVX NSCLC = test system: EKVX NSCLC
A498 renal = test system: A498 renal
OVCAR-8 ovarian = test system: OVCAR-8 ovarian
SK-MEL-2 melanoma = test system: SK-MEL-2 melanoma

C[C@]12CC[C@H]3[C@@H](CC=C4C[C@@H](N5CCCC5)CC[C@@]43C)[C@@H]1C[C@H](N1CCCCC1)[C@@H]2O
49.6 µM: TGI (K-562 leukemia)
> 100 µM: TGI (MOLT-4 leukemia) | TGI (LOX IMVI melanoma) | TGI (HL-60(TB) leukemia) | TGI (IGROV1 ovarian) | TGI (UACC-62 melanoma) | TGI (MCF7 breast) | TGI (NCI-H23 lung) | TGI (SF-539 CNS) | TGI (SN12C renal) | TGI (SNB-75 CNS) | TGI (MALME-3M melanoma) | TGI (HS 578T breast) | TGI (U251 CNS) | TGI (786-0 renal) | TGI (COLO 205 colon) | TGI (CAKI-1 renal) | TGI (MDA-N) | TGI (SW-620 colon) | TGI (HT29 colon) | TGI (OVCAR-4 ovarian) | TGI (CCRF-CEM leukemia) | TGI (MDA-MB-435) | TGI (RXF 393 renal) | TGI (PC-3 prostate) | TGI (SK-OV-3 ovarian) | TGI (DU-145 prostate) | TGI (HOP-92 NSCLC) | TGI (KM12 colon) | TGI (NCI-H460 lung) | TGI (ACHN renal) | TGI (OVCAR-3 ovarian) | TGI (SK-MEL-5 melanoma) | TGI (HOP-62 NSCLC) | TGI (NCI/ADR-RES ovarian) | TGI (A549 NSCLC) | TGI (NCI-H522 lung) | TGI (MDA-MB-231 breast) | TGI (NCI-H226 lung) | TGI (HCC-2998 colon) | TGI (HCT-15 colon) | TGI (SK-MEL-28 melanoma) | TGI (HCT-116 colon) | TGI (T-47D breast) | TGI (TK-10 renal) | TGI (OVCAR-5 ovarian) | TGI (UO-31 renal) | TGI (SF-268 CNS) | TGI (SNB-19 CNS) | TGI (BT-549 breast) | TGI (SF-295 CNS) | TGI (EKVX NSCLC) | TGI (A498 renal) | TGI (OVCAR-8 ovarian)
40.4 µM: TGI (M14 melanoma)
85.7 µM: TGI (RPMI-8226 leukemia)
83.8 µM: TGI (UACC-257 melanoma)
35.7 µM: TGI (SR leukemia)

Cn1/c(=N\N=C2\C=C3CCCCC3(C)CC2)sc2ccccc21 (stereo not drawn)
> 100 µM: TGI (LOX IMVI melanoma) | TGI (HL-60(TB) leukemia) | TGI (IGROV1 ovarian) | TGI (UACC-62 melanoma) | TGI (MCF7 breast) | TGI (NCI-H23 lung) | TGI (SF-539 CNS) | TGI (SN12C renal) | TGI (K-562 leukemia) | TGI (SNB-75 CNS) | TGI (MALME-3M melanoma) | TGI (HS 578T breast) | TGI (U251 CNS) | TGI (786-0 renal) | TGI (SK-MEL-2 melanoma) | TGI (COLO 205 colon) | TGI (CAKI-1 renal) | TGI (MDA-N) | TGI (M14 melanoma) | TGI (SW-620 colon) | TGI (HT29 colon) | TGI (OVCAR-4 ovarian) | TGI (CCRF-CEM leukemia) | TGI (UACC-257 melanoma) | TGI (SR leukemia) | TGI (MDA-MB-435) | TGI (RXF 393 renal) | TGI (PC-3 prostate) | TGI (SK-OV-3 ovarian) | TGI (DU-145 prostate) | TGI (HOP-92 NSCLC) | TGI (KM12 colon) | TGI (NCI-H460 lung) | TGI (ACHN renal) | TGI (OVCAR-3 ovarian) | TGI (SK-MEL-5 melanoma) | TGI (HOP-62 NSCLC) | TGI (NCI/ADR-RES ovarian) | TGI (A549 NSCLC) | TGI (NCI-H522 lung) | TGI (MDA-MB-231 breast) | TGI (NCI-H226 lung) | TGI (HCC-2998 colon) | TGI (HCT-15 colon) | TGI (SK-MEL-28 melanoma) | TGI (HCT-116 colon) | TGI (T-47D breast) | TGI (TK-10 renal) | TGI (OVCAR-5 ovarian) | TGI (UO-31 renal) | TGI (SF-268 CNS) | TGI (SNB-19 CNS) | TGI (BT-549 breast) | TGI (SF-295 CNS) | TGI (EKVX NSCLC) | TGI (A498 renal) | TGI (OVCAR-8 ovarian)

COc1cc2c(cc1OC)C(=O)N(c1ccc(OCCN3CCCC3)cc1)C2
> 100 µM: TGI (MOLT-4 leukemia) | TGI (LOX IMVI melanoma) | TGI (HL-60(TB) leukemia) | TGI (IGROV1 ovarian) | TGI (UACC-62 melanoma) | TGI (MCF7 breast) | TGI (NCI-H23 lung) | TGI (SF-539 CNS) | TGI (SN12C renal) | TGI (K-562 leukemia) | TGI (MALME-3M melanoma) | TGI (HS 578T breast) | TGI (U251 CNS) | TGI (786-0 renal) | TGI (SK-MEL-2 melanoma) | TGI (COLO 205 colon) | TGI (CAKI-1 renal) | TGI (MDA-N) | TGI (M14 melanoma) | TGI (SW-620 colon) | TGI (HT29 colon) | TGI (OVCAR-4 ovarian) | TGI (CCRF-CEM leukemia) | TGI (UACC-257 melanoma) | TGI (SR leukemia) | TGI (MDA-MB-435) | TGI (RXF 393 renal) | TGI (PC-3 prostate) | TGI (SK-OV-3 ovarian) | TGI (DU-145 prostate) | TGI (HOP-92 NSCLC) | TGI (KM12 colon) | TGI (NCI-H460 lung) | TGI (ACHN renal) | TGI (OVCAR-3 ovarian) | TGI (SK-MEL-5 melanoma) | TGI (HOP-62 NSCLC) | TGI (NCI/ADR-RES ovarian) | TGI (A549 NSCLC) | TGI (NCI-H522 lung) | TGI (MDA-MB-231 breast) | TGI (NCI-H226 lung) | TGI (RPMI-8226 leukemia) | TGI (HCC-2998 colon) | TGI (HCT-15 colon) | TGI (SK-MEL-28 melanoma) | TGI (HCT-116 colon) | TGI (T-47D breast) | TGI (TK-10 renal) | TGI (OVCAR-5 ovarian) | TGI (SF-268 CNS) | TGI (SNB-19 CNS) | TGI (BT-549 breast) | TGI (SF-295 CNS) | TGI (EKVX NSCLC) | TGI (A498 renal) | TGI (OVCAR-8 ovarian)

Cc1nc2c(Br)cc(Br)cc2c(=O)n1-c1ccccc1NC1OC(CO)C(O)C(O)C1O (stereo not drawn)
inactive: GI50 (SR leukemia) > 100 µM and 44.8 µM | GI50 (A549 NSCLC) 27.8 µM and > 100 µM
> 100 µM: TGI (MOLT-4 leukemia) | TGI (LOX IMVI melanoma) | TGI (HL-60(TB) leukemia) | TGI (IGROV1 ovarian) | TGI (UACC-62 melanoma) | TGI (MCF7 breast) | TGI (NCI-H23 lung) | TGI (SF-539 CNS) | TGI (SN12C renal) | TGI (K-562 leukemia) | TGI (SNB-75 CNS) | TGI (MALME-3M melanoma) | TGI (HS 578T breast) | TGI (U251 CNS) | TGI (786-0 renal) | TGI (SK-MEL-2 melanoma) | TGI (COLO 205 colon) | TGI (CAKI-1 renal) | TGI (MDA-N) | TGI (M14 melanoma) | TGI (SW-620 colon) | TGI (HT29 colon) | TGI (OVCAR-4 ovarian) | TGI (CCRF-CEM leukemia) | TGI (UACC-257 melanoma) | TGI (SR leukemia) | TGI (MDA-MB-435) | TGI (RXF 393 renal) | TGI (PC-3 prostate) | TGI (SK-OV-3 ovarian) | TGI (DU-145 prostate) | TGI (HOP-92 NSCLC) | TGI (KM12 colon) | TGI (NCI-H460 lung) | TGI (ACHN renal) | TGI (OVCAR-3 ovarian) | TGI (SK-MEL-5 melanoma) | TGI (HOP-62 NSCLC) | TGI (NCI/ADR-RES ovarian) | TGI (A549 NSCLC) | TGI (NCI-H522 lung) | TGI (MDA-MB-231 breast) | TGI (NCI-H226 lung) | TGI (RPMI-8226 leukemia) | TGI (HCC-2998 colon) | TGI (HCT-15 colon) | TGI (SK-MEL-28 melanoma) | TGI (HCT-116 colon) | TGI (T-47D breast) | TGI (TK-10 renal) | TGI (OVCAR-5 ovarian) | TGI (UO-31 renal) | TGI (SF-268 CNS) | TGI (SNB-19 CNS) | TGI (BT-549 breast) | TGI (SF-295 CNS) | TGI (EKVX NSCLC) | TGI (A498 renal) | TGI (OVCAR-8 ovarian)

— PubChem BioAssay (NCI)
